In DBAASP:
Values after ≈ are worked out from the molar mass of the structure shown. Values belong to the compound of their own block, whether it stands above or below them.

How the values were obtained:
Test in all cases: ≥ marks a high value that may be exact or a test limit, other limits are often not marked, values filed in µg/mL are converted to µM
[1] = test system: Bacillus subtilis ATCC 6633
[2] = test system: Bacillus megaterium ATCC 10778
[3] = test system: Serratia marcescens ATCC 4112
[4] = test system: Micrococcus luteus A270
[5] = test system: Enterobacter cloacae beta-12
[6] = test system: Staphylococcus aureus ATCC 29213
[7] = test system: Candida albicans MDM8
[8] = test system: Escherichia coli SBS 363
[9] = test system: Pseudomonas aeruginosa ATCC 27853
[10] = test system: Candida tropicalis IOC 4560
[11] = test system: Staphylococcus aureus SH1000
[12] = test system: Pseudomonas aeruginosa H1001
[13] = test system: Escherichia coli DH5alpha

SMILES: CC(C)C[C@H](NC(=O)[C@H](C)NC(=O)CNC(=O)[C@H](CC(C)C)NC(=O)[C@@H](N)Cc1ccccc1)C(=O)N[C@@H](Cc1c[nH]c2ccccc12)C(=O)N[C@@H](CC(N)=O)C(=O)N[C@H](C(=O)N[C@@H](C)C(=O)N[C@@H](CCCCN)C(=O)N[C@@H](CO)C(=O)N[C@@H](Cc1ccc(O)cc1)C(=O)N[C@@H](Cc1ccccc1)C(N)=O)C(C)C [FLGALWNVAKSYF]
- MIC [1]: 1.6 µM (≈ 2.42 µg/mL)
- MIC [2]: 3.1 µM (≈ 4.7 µg/mL)
- MIC [3]: 0.4 µM (≈ 0.606 µg/mL)
- MIC [4]: 0.8 µM (≈ 1.21 µg/mL)
- MIC [5]: ≥ 50 µM
- MIC [6]: 3.1 µM (≈ 4.7 µg/mL)
- MIC [7]: ≥ 50 µM
- MIC [8]: 6.3 µM (≈ 9.54 µg/mL)
- MIC [9]: > 50 µM
- MIC [10]: 12.5 µM (≈ 18.9 µg/mL)

SMILES: CC(C)C[C@H](NC(=O)CN)C(=O)N[C@@H](Cc1ccccc1)C(=O)N[C@@H](CC(=O)O)C(=O)N[C@@H](CC(C)C)C(=O)N[C@@H](CC(C)C)C(=O)N[C@@H](CCCCN)C(=O)N[C@@H](CCCCN)C(=O)N[C@@H](CC(C)C)C(=O)N[C@@H](CC(C)C)C(=O)N[C@@H](CCCCN)C(=O)N[C@@H](CC(C)C)C(=O)N[C@@H](CC(C)C)C(=O)N[C@@H](CCCCN)C(N)=O [GLFDLLKKLLKLLK]
- MIC [11]: ≥ 100 µM

SMILES: CC[C@H](C)[C@H](NC(=O)[C@H](C)NC(=O)[C@H](CCCCN)NC(=O)[C@@H](NC(=O)[C@H](CC(C)C)NC(=O)[C@H](CCCCN)NC(=O)[C@H](CCCCN)NC(=O)[C@@H](NC(=O)CNC(=O)[C@H](C)NC(=O)[C@H](Cc1ccccc1)NC(=O)[C@H](Cc1ccccc1)NC(=O)[C@H](CCCCN)NC(=O)CNC(=O)[C@@H](N)Cc1c[nH]c2ccccc12)C(C)C)[C@@H](C)O)C(=O)N[C@@H](CC(C)C)C(=O)N[C@@H](C)C(=O)N[C@H](C(=O)N[C@@H](CCCN=C(N)N)C(=O)N[C@@H](C)C(N)=O)C(C)C [WGKFFAGVKKLTKAILAVRA]
- MIC [13]: 10 µM (≈ 22 µg/mL)
- MIC [11]: 3.16 µM (≈ 6.97 µg/mL)

SMILES: CC[C@H](C)[C@H](NC(=O)[C@H](C)NC(=O)[C@H](CCCCN)NC(=O)[C@@H](NC(=O)[C@H](CC(C)C)NC(=O)[C@H](CCCCN)NC(=O)[C@H](CCCCN)NC(=O)[C@@H](NC(=O)CNC(=O)[C@H](C)NC(=O)[C@H](Cc1ccccc1)NC(=O)[C@H](Cc1ccccc1)NC(=O)[C@H](CCCCN)NC(=O)CNC(=O)[C@@H](N)Cc1c[nH]c2ccccc12)C(C)C)[C@@H](C)O)C(=O)N[C@@H](CC(C)C)C(=O)NCC(=O)N[C@@H](CCC(=O)O)C(=O)N[C@H](C(=O)N[C@@H](C)C(N)=O)[C@@H](C)CC [WGKFFAGVKKLTKAILGEIA]
- MIC [13]: 3.16 µM (≈ 6.88 µg/mL)
- MIC [11]: 3.16 µM (≈ 6.88 µg/mL)

Other lines, results leading:

- MIC [12]: 0.112 µM (≈ 0.27 µg/mL)
SMILES: CC[C@H](C)[C@H](NC(=O)[C@H](CCCN=C(N)N)NC(=O)[C@H](CCCCN)NC(=O)[C@@H]1CCCN1C(=O)[C@@H]1CCCN1C(=O)[C@H](CCCN=C(N)N)NC(=O)[C@@H]1CCCN1C(=O)[C@H](CCCN=C(N)N)NC(=O)[C@@H]1CCCN1C(=O)[C@H](CC(C)C)NC(=O)[C@H](Cc1ccc(O)cc1)NC(=O)[C@@H]1CCCN1C(=O)[C@@H]1CCCN1C(=O)[C@H](CCCCN)NC(=O)[C@H](CC(=O)O)NC(=O)[C@@H](N)C(C)C)C(=O)N[C@@H](Cc1ccc(O)cc1)C(=O)N[C@@H](CC(N)=O)C(=O)N[C@@H](CCCN=C(N)N)C(=O)NCC(=O)O [VDKPPYLPRPRPPKRIYNRG]

- MIC [12]: 0.12 µM (≈ 0.3 µg/mL)
SMILES: CC[C@H](C)[C@H](NC(=O)[C@H](CCCN=C(N)N)NC(=O)[C@H](CCCN=C(N)N)NC(=O)[C@H](CCCN=C(N)N)NC(=O)[C@@H]1CCCN1C(=O)[C@H](CCCN=C(N)N)NC(=O)[C@@H]1CCCN1C(=O)[C@H](CCCN=C(N)N)NC(=O)[C@@H]1CCCN1C(=O)[C@H](CC(C)C)NC(=O)[C@H](Cc1ccc(O)cc1)NC(=O)[C@@H]1CCCN1C(=O)[C@@H]1CCCN1C(=O)[C@H](CCCCN)NC(=O)[C@H](CC(=O)O)NC(=O)[C@@H](N)C(C)C)C(=O)N[C@@H](Cc1ccc(O)cc1)C(=O)N[C@@H](CC(N)=O)C(=O)N[C@@H](CCCN=C(N)N)C(=O)NCC(=O)O [VDKPPYLPRPRPRRRIYNRG]
